Measured values reported in patent US20050119288A1, “Dosing schedule for a novel anticancer agent” (Pfizer Inc, priority 2003, published 2005).

Tests used:
in vivo = conditions: athymic, mouse, plasma
Description: The test compound was either administered using tail vein infusion or orally.
A 1.15 mg/ml solution of the test compound was infused IV at 550 μl/hr for 2 minute ramped infusions followed by 50 μl/hr for 15 min or 4 hour daily infusions. (Projection was based on Cl of the test compound). Athymic female mice bearing FRE/erbB2 tumors (˜100 mm^3 in size) were treated with vehicle, the test compound orally or the test compound intravenously. […] The study was carried out for 7 days. Plasma and tumor samples were isolated for PK and PD analysis at the termination of study.

SK-OV-3 tumors = test: SK-OV-3 xenograft tumor growth in athymic mice; format: in vivo, human; conditions: for % Growth inhibition / Tumor volume Day 1 (Mean ± SE) / Tumor volume Day 18 (Mean ± SE): PO
From the text: The in vivo anti-tumor activity of the compounds for use in the methods of the present invention can be determined by the amount of inhibition of tumor growth by a test compound relative to a control. The tumor growth inhibitory effects of various compounds can be measured according to the method of Corbett T. H., et al., “Tumor Induction Relationships in Development of Transplantable Cancers of the Colon in Mice for Chemotherapy Assays, with a Note on Carcinogen Structure”, Cancer Res., 35, 2434-2439 (1975) and Corbett T. H., et al., “A Mouse Colon-tumor Model for Experimental Therapy”, Cancer Chemother. Rep. (Part 2)”, 5, 169-186 (1975), with slight modifications. Tumors can be induced in the left flank of mice by subcutaneous (sc) injection of 1-5 million log phase cultured tumor cells suspended in 0.1 ml RPMI 1640 medium. After sufficient time has elapsed for the tumors to become palpable (˜100-150 mm^3 in size/5-6 mm in diameter) the test animals (athymic female mice) are treated with test compound (formulated at a concentration of 10 to 15 mg/ml in 5 Gelucire or 0.5% methyl cellulose) by the intravenous (iv) or oral (po) route of administration once or twice daily for 7 to 29 consecutive days. In order to determine an anti-tumor effect, the tumor is measured in millimeters with a Vernier caliper across two diameters and the tumor size (mm^3) is calculated using the formula: Tumor size (mm^3)=(W×W)/2×L (L=length and W=width), according to the methods of Geran, R. I., et al. “Protocols for Screening Chemical Agents and Natural Products Against Animal Tumors and Other Biological Systems”, Third Edition, Cancer Chemother. Rep., 3, 1-104 (1972). Results are expressed as percent inhibition, according to the formula: Inhibition Growth (%)=[100-{(% Growth of Treated/% Growth of Control)×100}]. The flank site of tumor implantation provides reproducible dose/response effects for a variety of chemotherapeutic agents, and the method of measurement (tumor diameter) is a reliable method for assessing tumor growth rates.
(§1) SK-OV-3 cells obtained from ATCC (Rockville, Md.) were grown in McCoy's medium containing 10% fetal bovine serum and pen/strep. Exponentially growing cells were harvested and inoculated SC (5 million cells/animal) into female athymic mice. The tumor measurements and body weight changes were obtained on days 1, 3, 6, 10, 13 and 18. Tumor volume was calculated by the following formula: Tumor volume (mm^3)═(W×W)/2×L (L=length & W=width). Blood samples (˜50 μl) were isolated at 0.5, 1, 2, 4 and 8 hrs after dosing on day 18 for PK-analysis. Tumors were isolated at 0.5 hr post-dosing on day 18 for PD-analysis by ELISA. The p-erbB2 reduction, tumor volume and body weight changes in control and test compound treated animals are shown below in Table 2.

[1] = Pharmacokinetics in SK-OV-3 tumor-bearing mice; format: in vivo; conditions: for Cave0-4 h / AUC(0-t) / Cmax: PO; for AUC(0-t) / Cmax: female, athymic, mouse, blood, po; for AUC(0-t): read-out: AUC0-4 h; for Cmax: read-out: Cmax 0.5 h
Description: as §1

[2] = Body weight and tolerability, MDA-MB-453 study; format: in vivo, mice; conditions: PO
Description: Study Design: Exponentially growing MDA-MB-453 cells (DMEM/F12 with 10% FBS, and pen/strep [Gibco]) were harvested and inoculated SC (5 million cells/animal) into female athymic mice. MDA-MB-453 tumor bearing mice (˜100 mm^3 in size, N=64) were randomized in 8 groups consisting 8 animals each. Animals were treated with vehicle (PO, QD or BID) or the test compound (PO, QD or BID) as described in Table 6. The tumor measurements and body weight changes were obtained on days 1, 3, 7, 10, 14, 17, 21, 24, and 29. Tumor volume was calculated by the following formula: Tumor volume (mm^3)═(W×W)/2×L (L=length & W=width). Blood samples (˜50 μl) were isolated at 0.5, 1, 2, 4 and 8 hrs after dosing on day 29 for PK-analysis. Tumors were isolated at 0.5 hr post-dosing on day 29 for PD-analysis by ELISA.

[3] = Body weight and tolerability, FRE/erbB2 study
Description: A 1.15 mg/ml solution of the test compound was infused IV at 550 μl/hr for 2 minute ramped infusions followed by 50 μl/hr for 15 min or 4 hour daily infusions. […] Athymic female mice bearing FRE/erbB2 tumors (˜100 mm^3 in size) were treated with vehicle, the test compound orally or the test compound intravenously. Body weight changes and tumor measurements were obtained at regular intervals (Days 1, 3, 5, and 7). The study was carried out for 7 days.

`COCC(=O)NC/C=C/c1ccc2ncnc(Nc3ccc(Oc4ccc(C)nc4)c(C)c3)c2c1` [Test Compound, E-2-Methoxy-N-(3-{4-(3-methyl-4-(6-methyl-pyridin-3-yloxy)-phenylamino)-quinazolin-6-yl}-allyl)-acetamide] showed an AUC(0-t) (in vivo) of roughly 985 ng·h/mL, a Cmax (in vivo) of roughly 1200 ng/mL and a concentration at 7 days (in vivo; female, intravenous, 1.4 mg/kg) of 448 ± 141 ng/mL. For the same molecule, the concentration at 0.5 h (in vivo; female, oral, 25 mg/kg) was 1460 ng/mL, the “tumor growth inhibition, 100 mg/kg BID relative to 200 mg/kg QD” value (SK-OV-3 tumors; 18 days) was 2 fold and the “% Growth inhibition” value (SK-OV-3 tumors; BID 25 mg/kg (Total Daily Dose = 50 mg/kg), 18 days) was 29%. The “% Growth inhibition” value (SK-OV-3 tumors; BID 25 mg/kg (Total Daily Dose = 50 mg/kg), 18 days, listed as test compound) was “Approximately 29%”, the “Tumor volume Day 1 (Mean ± SE)” value (SK-OV-3 tumors; BID 25 mg/kg) was 93 ± 12 mm^3 and the “Tumor volume Day 18 (Mean ± SE)” value (SK-OV-3 tumors; BID 25 mg/kg) was 281 ± 42 mm^3. For the same molecule, the “% Growth inhibition” value (SK-OV-3 tumors; BID 50 mg/kg (Total Daily Dose = 100 mg/kg), 18 days) was 45%, the “Tumor volume Day 1 (Mean ± SE)” value (SK-OV-3 tumors; BID 50 mg/kg) was 94 ± 13 mm^3 and the “Tumor volume Day 18 (Mean ± SE)” value (SK-OV-3 tumors; BID 50 mg/kg) was 218 ± 38 mm^3. The “% Growth inhibition” value (SK-OV-3 tumors; BID 100 mg/kg (Total Daily Dose = 200 mg/kg), 18 days) was 71%, the “Tumor volume Day 1 (Mean ± SE)” value (SK-OV-3 tumors; BID 100 mg/kg) was 94 ± 13 mm^3 and the “Tumor volume Day 18 (Mean ± SE)” value (SK-OV-3 tumors; BID 100 mg/kg) was 115 ± 24 mm^3. For the same molecule, the “% Growth inhibition” value (SK-OV-3 tumors; QD 50 mg/kg, 18 days) was 2%, the “% Growth inhibition” value (SK-OV-3 tumors; QD 50 mg/kg, 18 days, listed as test compound) was “non-efficacious” and the “Tumor volume Day 1 (Mean ± SE)” value (SK-OV-3 tumors; QD 50 mg/kg) was 98 ± 14 mm^3. The “Tumor volume Day 18 (Mean ± SE)” value (SK-OV-3 tumors; QD 50 mg/kg) was 390 ± 38 mm^3, the “% Growth inhibition” value (SK-OV-3 tumors; QD 100 mg/kg, 18 days) was 23% and the “Tumor volume Day 1 (Mean ± SE)” value (SK-OV-3 tumors; QD 100 mg/kg) was 97 ± 14 mm^3. For the same molecule, the “Tumor volume Day 18 (Mean ± SE)” value (SK-OV-3 tumors; QD 100 mg/kg) was 306 ± 36 mm^3, the “% Growth inhibition” value (SK-OV-3 tumors; QD 200 mg/kg, 18 days) was 36% and the “Tumor volume Day 1 (Mean ± SE)” value (SK-OV-3 tumors; QD 200 mg/kg) was 98 ± 14 mm^3. For the same molecule, the “Tumor volume Day 18 (Mean ± SE)” value (SK-OV-3 tumors; QD 200 mg/kg) was 254 ± 39 mm^3, the Cave0-4 h ([1]; 25 mg/kg, BID, day 18) was 390 ng/mL and the “AUC0-4 h and Cave0-4 h, QD group compared to BID dosed group” value ([1]; 50 mg/kg QD vs 25 mg/kg BID, day 18) was “approximately 2 fold”. The Cave0-4 h ([1]; 50 mg/kg, BID, day 18) was 1050 ng/mL, the Cave0-4 h ([1]; 50 mg/kg, QD, day 18) was 853 ng/mL and the Cave0-4 h ([1]; 100 mg/kg, BID, day 18) was 2330 ng/mL. For the same molecule, the Cave0-4 h ([1]; 100 mg/kg, QD, day 18) was 4080 ng/mL, the Oral absorption ([1]; 200 mg/kg QD dosing) was “non-linear” and the Cave0-4 h ([1]; 200 mg/kg, QD, day 18) was 3780 ng/mL. For the same molecule, the “Cmax, 50 mg/kg QD compared to 25 mg/kg BID” value ([1]; day 18) was “approximately 2 fold”, the AUC(0-t) ([1]; 25 mg/kg, BID, day 18) was 1560 ng·h/mL and the Cmax ([1]; 25 mg/kg, BID, day 18) was 1780 ng/mL. The AUC(0-t) ([1]; 50 mg/kg, BID, day 18) was 4180 ng·h/mL, the Cmax ([1]; 50 mg/kg, BID, day 18) was 3880 ng/mL and the AUC(0-t) ([1]; 50 mg/kg, QD, day 18) was 3410 ng·h/mL. It also gave a Cmax ([1]; 50 mg/kg, QD, day 18) of 3640 ng/mL, an AUC(0-t) ([1]; 100 mg/kg, BID, day 18) of 9330 ng·h/mL and a Cmax ([1]; 100 mg/kg, BID, day 18) of 8060 ng/mL. It also gave an AUC(0-t) ([1]; 100 mg/kg, QD, day 18) of 16300 ng·h/mL, a Cmax ([1]; 100 mg/kg, QD, day 18) of 12100 ng/mL and an AUC(0-t) ([1]; 200 mg/kg, QD, day 18) of 15100 ng·h/mL. For the same molecule, the Cmax ([1]; 200 mg/kg, QD, day 18) was 10200 ng/mL, the “average body weight Day 1” value ([2]; BID 25 mg/kg) was 22 g and the “average body weight Day 29” value ([2]; BID 25 mg/kg) was 23 g. For the same molecule, the “average body weight Day 1” value ([2]; BID 50 mg/kg) was 23 g, the “average body weight Day 29” value ([2]; BID 50 mg/kg) was 24 g and the “average body weight Day 1” value ([2]; BID 100 mg/kg) was 23 g. For the same molecule, the “average body weight Day 29” value ([2]; BID 100 mg/kg) was 25 g, the “average body weight Day 1” value ([2]; QD 50 mg/kg) was 23 g and the “average body weight Day 29” value ([2]; QD 50 mg/kg) was 25 g. For the same molecule, the “average body weight Day 1” value ([2]; QD 100 mg/kg) was 23 g, the “average body weight Day 29” value ([2]; QD 100 mg/kg) was 25 g and the “average body weight Day 1” value ([2]; QD 200 mg/kg) was 22 g. The “average body weight Day 29” value ([2]; QD 200 mg/kg) was 24 g, the “tolerability, body weight loss or animal mortality” value ([2]; QD or BID, 29 days) was “well tolerated and there was no body weight loss or animal mortality” and the “average body weight Day 1” value ([3]; 1.4 mg/kg IV, QD, 15 min/day) was 23 g. For the same molecule, the “average body weight Day 7” value ([3]; 1.4 mg/kg IV, QD, 15 min/day) was 24 g, the “average body weight Day 1” value ([3]; 10.7 mg/kg IV, 4 hr/day) was 22 g and the “average body weight Day 7” value ([3]; 10.7 mg/kg IV, 4 hr/day) was 22 g. The “average body weight Day 1” value ([3]; 25 mg/kg PO, QD) was 21 g, the “average body weight Day 7” value ([3]; 25 mg/kg PO, QD) was 22 g and the “body weight loss or mortality” value ([3]; FRE/erbB2 study, 7 days) was “did not cause any body weight loss or mortality”.
